Laboratory results reported in US7632531B2, “Alkyldienamides exhibiting taste and sensory effect in flavor compositions” (International Flavors & Fragnances Inc., priority 2003, dated 2009).

How the values were obtained:
Type in all cases: in vivo
[1] = Flavor / organoleptic characteristics of the alkyldienamides; conditions: for Taste and flavor characteristics: organoleptic properties; for Primary characteristic / Secondary characteristic: flavor characteristics
[2] = Alcoholic peach beverage tasting versus control beverage; conditions: 20 PPM compound plus 60 PPM peach flavor in 30° Proof alcoholic base
Procedure: Flavored beverages were prepared using the following 30° Proof alcoholic base:
The peach flavor applied to the beverages consisted of a blend of Gamma Decalactone, Benzaldehyde, Cis-3-hexenol, Butyric acid, 2-Methyl butyric acid, Iso butyl acetate, Linalool, and para-Mentha-8-thiol-3-one. The control beverage contained 60 PPM of the above flavor blend. […] Another beverage was prepared containing 60 PPM of the same flavor and 20 PPM of N-(3,4-methylenedioxy)benzyl E2,Z6-nonadienamide.

[3] = Non-alcoholic lemon lime beverage tasting versus control beverage; conditions: 0.5 PPM compound plus 35 PPM lemon oil/lime oil flavor; versus control beverage with flavor only
Procedure: A non-alcoholic beverage formulation was prepared according to the following formulation: […]
The flavor applied to the beverages consisted of a blend of single fold lemon oil and distilled lime oil. The control beverage contained 35 PPM of this flavor. […] Another beverage was prepared containing 35 PPM of the same flavor and 0.5 PPM of N-Ethyl E2,Z6-nonadienamide.

[4] = Toothpaste tasting in normal tooth brushing versus control paste; conditions: 200 ppm compound added to mint control paste
Procedure: The following separate groups of ingredients were prepared:
2.0 parts by weight of sodium n-Lauroyl sarcosinate (foaming agent)
1.0 parts by weight of the flavor material which is a blend of peppermint oil, spearmint oil, anethole, and menthol.
• (1) The ingredients in Group “A” were stirred and heated in a steam jacketed kettle to 160° F. • (2) Stirring was continued for an additional 3 to 5 minutes to form a homogeneous gel. • (3) The powders of Group “B” were added to the gel, while mixing until a homogeneous paste is formed. • (4) With stirring, the flavor of Group “D” was added, followed by addition immediately thereafter of the foaming agent of Group “C”. • (5) The resultant slurry was then blended for one hour.
The completed paste was then transferred to a three-roller mill, homogenized and finally tubed. […] To this control paste 200 ppm of N-Isobutyl E2,Z6-dodecadienamide is added.

[5] = Hard candy (cinnamon bark oil) tasting versus control candy; conditions: 100 PPM compound in cinnamon bark oil candy
Procedure: The above ingredients were added to a stainless steel pot. With constant mixing the ingredients were brought to 295° F. The pot was removed from the heat and 0.5 grams of cinnamon bark oil was blended in. This liquid candy was then deposited into molds where it was left to cool. This recipe yielded 200 grams of finished candy. […] Another candy sample was prepared using the above recipe with the addition of 100 PPM of N-Methyl E2,Z6-nonadienamide.

Compound | Taste and flavor characteristics [1] | Primary characteristic [1] | Secondary characteristic [1] | also measured
CC/C=C\CC/C=C/C(=O)NCC(C)O (stereo not drawn) [N-(2-hydroxypropyl) E2,Z6-nonadienamide] | Cloying, fatty, cod liver oil, fishy. |  |  | 
CCCCC/C=C\CC/C=C/C(=O)NCC(C)CC (stereo not drawn) [N-(2-methylbutyl) E2,Z6-dodecadienamide] | Slightly fruity, tingle, salty. | Fruity | Salt like | 
CC/C=C\CC/C=C/C(=O)NCC(C)CC (stereo not drawn) [N-(2-methylbutyl) E2,Z6-nonadienamide] | Metallic, bitter, tingle. | Bitter | Tingle | 
CC/C=C\CC/C=C/C(=O)NCc1ccc2c(c1)OCO2 [N-(3,4-methylenedioxy) benzyl E2,Z6-nonadienamide] | Numbing and tingle. | Numbing | Tingle | Taste effect in alcoholic beverage [2]: an enhanced perception of alcohol, increased flavor impact, and a tingle effect on the tongue
CC/C=C\CC/C=C/C(=O)NC1CC1 [N-cyclopropyl E2,Z6-nonadienamide] |  | Umami | Enhancement | 
CCCCC/C=C\CC/C=C/C(=O)NCC [N-ethyl E2,Z6-dodecadienamide] |  | MSG like | Burning | 
CC/C=C\CC/C=C/C(=O)NCC [N-ethyl E2,Z6-nonadienamide] | Umami character. | Umami | Enhancement | Taste effect in non-alcoholic beverage [3]: enhanced flavor impact, increased tartness, and an increased perception of freshness
CCCCC/C=C\CC/C=C/C(=O)NCC(C)C [N-isobutyl E2,Z6-dodecadienamide] |  | Numbing | Tingle | Additional sensation of toothpaste (tingle, numbing) [4]: tingle on the tongue and a slight numbing on the lips; Flavor / cooling of toothpaste [4]: moderate cooling without the bitterness of the control sample
CC/C=C\CC/C=C/C(=O)NCC(C)C [N-isobutyl E2,Z6-nonadienamide] |  |  | MSG like | 
CCCCC/C=C\CC/C=C/C(=O)NC(C)C [N-isopropyl E2,Z6-dodecadienamide] | Oily flavor, slight tingle. |  | Tingle | 
CC/C=C\CC/C=C/C(=O)NC(C)C [N-isopropyl E2,Z6-nonadienamide] | Oily, cucumber, some tingle, bitter. | Cucumber taste | Tingle | 
CC/C=C\CC/C=C/C(=O)NC [N-methyl E2,Z6-nonadienamide] | Warming, tingle. | Tingle | Numbing | Taste effect in hard candy [5]: a greener flavor with less warmth, a slight numbing and a moderate level of tingle
